Data from patent US7635716B2, “Substituted cyclopentanes or cyclopentanones as therapeutic agents” (Allergan, Inc., priority 2005, dated 2009).
Like-named read-outs stand apart in the source and are kept apart here.

What was measured:
[1] = biological target: T1, hEP4/Gqs5 (Homo sapiens, UniProt P35408); assay: FLIPR calcium signal, HEK-293(EBNA) cells; assay type: cell-based
T1 construct: expressed in transfected cells; host or cells: HEK-293(EBNA) cells
Procedure: (§1) HEK-293(EBNA) cells, stably expressing one type or subtype of recombinant human prostaglandin receptors (prostaglandin receptors expressed: hDP/Gqs5; hEP1; hEP2/Gqs5; hEP3A/Gqi5; hEP4/Gqs5; hFP; hIP; hTP), were cultured in 100 mm culture dishes in high-glucose DMEM medium containing 10% fetal bovine serum, 2 mM 1-glutamine, 250 μg/ml geneticin (G418) and 200 μg/ml hygromycin B as selection markers, and 100 units/ml penicillin G, 100 μg/ml streptomycin and 0.25 μg/ml amphotericin B.
(§2) Cells were seeded at a density of 5×10^4 cells per well in Biocoat® Poly-D-lysine-coated black-wall, clear-bottom 96-well plates (Becton-Dickinson) and allowed to attach overnight in an incubator at 37° C. Cells were then washed two times with HBSS-HEPES buffer (Hanks Balanced Salt Solution without bicarbonate and phenol red, 20 mM HEPES, pH 7.4) using a Denley Cellwash plate washer (Labsystems). After 45 minutes of dye-loading in the dark, using the calcium-sensitive dye Fluo-4 AM at a final concentration of 2 μM, plates were washed four times with HBSS-HEPES buffer to remove excess dye leaving 100 μl in each well. Plates were re-equilibrated to 37° C. for a few minutes.
(§3) Cells were excited with an Argon laser at 488 nm, and emission was measured through a 510-570 nm bandwidth emission filter (FLIPR™, Molecular Devices, Sunnyvale, Calif.). Drug solution was added in a 50 μl volume to each well to give the desired final concentration. The peak increase in fluorescence intensity was recorded for each well. On each plate, four wells each served as negative (HBSS-HEPES buffer) and positive controls (standard agonists: BW245C (hDP); PGE2 (hEP1; hEP2/Gqs5; hEP3A/Gqi5; hEP4/Gqs5); PGF2. (hFP); carbacyclin (hIP); U-46619 (hTP), depending on receptor). The peak fluorescence change in each drug-containing well was then expressed relative to the controls.
(§4) Compounds were tested in a high-throughput (HTS) or concentration-response (CoRe) format. In the HTS format, forty-four compounds per plate were examined in duplicates at a concentration of 10^−5 M. To generate concentration-response curves, four compounds per plate were tested in duplicates in a concentration range between 10^−5 and 10^−11 M. The duplicate values were averaged. In either, HTS or CoRe format each compound was tested on at least 3 separate plates using cells from different passages to give an n≧3.

[2] = biological target: T2, hEP2/Gqs5 (Homo sapiens, UniProt P43116); assay: FLIPR calcium signal, HEK-293(EBNA) cells; assay type: cell-based
T2 construct: expressed in transfected cells; host or cells: HEK-293(EBNA) cells
Procedure: as §1, §2, §3, §4

[3] = biological target: T3, hEP3A/Gqi5 (Homo sapiens, UniProt P43115); assay: FLIPR calcium signal, HEK-293(EBNA) cells; assay type: cell-based
T3 construct: expressed in transfected cells; host or cells: HEK-293(EBNA) cells
T3 sequence (P43115 1-390): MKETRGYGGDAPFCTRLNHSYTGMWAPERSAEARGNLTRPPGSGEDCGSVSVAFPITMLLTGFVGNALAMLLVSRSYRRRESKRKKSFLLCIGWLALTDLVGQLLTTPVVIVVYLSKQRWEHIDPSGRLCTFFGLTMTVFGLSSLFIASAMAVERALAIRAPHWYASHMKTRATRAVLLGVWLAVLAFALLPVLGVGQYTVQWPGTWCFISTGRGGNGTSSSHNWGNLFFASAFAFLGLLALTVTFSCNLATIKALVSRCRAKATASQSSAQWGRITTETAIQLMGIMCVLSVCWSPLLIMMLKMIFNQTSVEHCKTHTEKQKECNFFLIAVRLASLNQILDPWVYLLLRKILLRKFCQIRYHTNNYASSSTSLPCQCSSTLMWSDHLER
Procedure: as §1, §2, §3, §4

[4] = biological target: T4, hDP/Gqs5 (Homo sapiens, UniProt Q13258); assay: FLIPR calcium signal, HEK-293(EBNA) cells; assay type: cell-based
T4 construct: expressed in transfected cells; host or cells: HEK-293(EBNA) cells
T4 sequence (Q13258 1-359): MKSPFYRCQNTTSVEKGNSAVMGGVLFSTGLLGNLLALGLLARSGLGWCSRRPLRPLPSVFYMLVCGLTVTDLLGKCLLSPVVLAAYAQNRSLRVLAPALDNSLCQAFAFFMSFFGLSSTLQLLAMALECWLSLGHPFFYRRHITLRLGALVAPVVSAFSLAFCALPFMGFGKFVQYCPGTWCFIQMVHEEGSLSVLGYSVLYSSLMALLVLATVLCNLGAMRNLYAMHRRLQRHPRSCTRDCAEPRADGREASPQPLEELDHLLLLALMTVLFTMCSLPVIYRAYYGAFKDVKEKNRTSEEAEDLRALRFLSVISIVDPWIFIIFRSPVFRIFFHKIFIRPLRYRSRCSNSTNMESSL
Procedure: as §1, §2, §3, §4

[5] = biological target: T5, hEP1 (Homo sapiens, UniProt P34995); assay: FLIPR calcium signal, HEK-293(EBNA) cells; assay type: cell-based
T5 construct: expressed in transfected cells; host or cells: HEK-293(EBNA) cells
T5 sequence (P34995 1-402): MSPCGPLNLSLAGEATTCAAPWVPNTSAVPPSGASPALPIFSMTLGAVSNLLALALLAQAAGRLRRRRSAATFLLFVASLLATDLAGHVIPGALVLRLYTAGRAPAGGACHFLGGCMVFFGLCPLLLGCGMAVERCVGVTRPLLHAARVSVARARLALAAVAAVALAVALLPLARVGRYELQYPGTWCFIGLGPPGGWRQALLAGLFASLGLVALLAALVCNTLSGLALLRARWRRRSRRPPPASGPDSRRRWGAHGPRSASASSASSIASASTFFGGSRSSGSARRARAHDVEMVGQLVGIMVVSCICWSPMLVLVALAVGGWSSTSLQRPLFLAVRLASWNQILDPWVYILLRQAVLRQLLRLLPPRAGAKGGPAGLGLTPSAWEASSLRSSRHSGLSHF
Procedure: as §1, §2, §3, §4

[6] = system: normotensive dogs; assay: Intraocular pressure (IOP) in normotensive dogs; assay type: in vivo, dog; conditions: Canis lupus familiaris, topical, 120 h, 0.1%, dosing once daily for 5 days, read-out: maximum IOP decrease from baseline (percent)
Procedure: (§5) (Z)-7-[(1R,2S,3R,5R)-5-Chloro-2-(3,5-dichloro-phenoxymethyl)-3-hydroxy-cyclopentyl]-hept-5-enoic acid (15b) was tested at multiple concentrations in normotensive dogs, dosing once daily for 5 days. At 0.05%, the maximum IOP decrease from baseline was 4.3 mmHg (30%) at 6 h; the maximum OSH score was 0.6 at 6 h. […] This compound was also tested in laser-induced hypertensive monkeys, using one single day dose. At 0.1%, the maximum IOP decrease from baseline was 6 mmHg (19%) at 6 h.
(§6) (Z)-7-[(1R,2S,3R,5R)-5-Chloro-2-(3,5-dichloro-phenoxymethyl)-3-hydroxy-cyclopentyl]-hept-5-enoic acid isopropyl ester (42b) was tested in normotensive dogs at 0.05%, dosing once daily for 5 days. The maximum intraocular pressure (IOP) decrease from baseline was 3 mmHg (19%) at 6 h; the maximum ocular surface hyperemia (OSH) score was 0.6 at 74 h. This compound was also tested in laser-induced hypertensive monkeys, using one single day dose. At 0.01%, the maximum IOP decrease from baseline was 6 mmHg (16%) at 6 h.

[7] = system: laser-induced hypertensive monkeys; assay: Intraocular pressure (IOP) in laser-induced hypertensive monkeys; assay type: in vivo, monkey; conditions: Primates, topical, 0.1%, one single day dose, read-out: maximum IOP decrease from baseline (percent)
Procedure: as §5, §6

[8] = system: normotensive dogs; assay: Ocular surface hyperemia (OSH) in normotensive dogs; assay type: in vivo, dog; set-up: maximum OSH score: scale not given here; conditions: 0.1%, dosing once daily for 5 days
Procedure: as §5, §6

[9] = Table 1, first part, triplicate, read-out: functional data (EC50) hEP4
[10] = Table 1, second part, read-out: hEP4 flipr EC50
[11] = Table 1, first part, triplicate, read-out: functional data (EC50) hEP2
[12] = Table 1, second part, read-out: hEP2 flipr EC50
[13] = Table 1, second part, quantity not given, values match functional data (EC50) of first part, read-out: Other Receptors hEP3

T2 sequence (P43116 whole entry): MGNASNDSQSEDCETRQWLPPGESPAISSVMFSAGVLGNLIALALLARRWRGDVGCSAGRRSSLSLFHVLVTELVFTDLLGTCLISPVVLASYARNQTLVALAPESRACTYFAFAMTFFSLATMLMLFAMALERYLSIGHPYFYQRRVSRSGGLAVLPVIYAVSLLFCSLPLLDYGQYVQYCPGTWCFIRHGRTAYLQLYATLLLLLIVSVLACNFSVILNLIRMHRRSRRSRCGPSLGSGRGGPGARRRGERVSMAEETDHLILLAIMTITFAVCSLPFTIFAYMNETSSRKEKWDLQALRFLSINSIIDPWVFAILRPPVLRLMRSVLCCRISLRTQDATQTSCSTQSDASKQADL
T1 sequence (P35408 whole entry): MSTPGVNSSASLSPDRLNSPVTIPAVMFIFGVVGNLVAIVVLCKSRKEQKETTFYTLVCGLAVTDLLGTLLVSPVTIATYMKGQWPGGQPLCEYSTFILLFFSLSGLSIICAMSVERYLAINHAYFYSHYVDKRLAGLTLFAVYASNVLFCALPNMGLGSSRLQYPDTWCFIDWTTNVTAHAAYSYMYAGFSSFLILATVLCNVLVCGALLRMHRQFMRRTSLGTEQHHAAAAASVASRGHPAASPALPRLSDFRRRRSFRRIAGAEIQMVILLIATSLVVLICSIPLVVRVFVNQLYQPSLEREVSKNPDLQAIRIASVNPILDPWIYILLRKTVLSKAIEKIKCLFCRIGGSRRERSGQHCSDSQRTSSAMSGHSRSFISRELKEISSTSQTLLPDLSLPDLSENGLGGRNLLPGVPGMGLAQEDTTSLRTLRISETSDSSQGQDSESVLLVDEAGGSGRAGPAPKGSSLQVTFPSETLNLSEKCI

Row | Structure (SMILES) | EC50 [1, 9] [µM] | EC50 [1, 10] [µM] | EC50 [2, 11] [µM] | EC50 [2, 12] [µM] | inhibition in vivo at 0.1 % [6] [%] | inhibition in vivo at 0.1 % [7] [%] | maximum OSH score [8] | time of maximum OSH score [8] [h] | further results
1 | COC(=O)CCC/C=C\C[C@H]1C(=O)C=C[C@@H]1COc1ccccc1 [Example 1, (Z)-7-((1R,5S)-2-Oxo-5-phenoxymethyl-cyclopent-3-enyl)-hept-5-enoic acid methyl ester] | > 10 | > 10 | > 10 | > 10 | – | – | – | – | –
2 | COC(=O)CCC/C=C\C[C@H]1C(=O)C[C@@H](O)[C@@H]1COc1ccccc1 [Example 2, (Z)-7-((1R,2S,3R)-3-Hydroxy-5-oxo-2-phenoxymethyl-cyclopentyl)-hept-5-enoic acid methyl ester] | > 10 | > 10 | – | – | – | – | – | – | –
3 | COC(=O)CCCCCC[C@H]1C(=O)CC[C@@H]1COc1ccccc1 [Example 5, 7-((1R,5S)-2-Oxo-5-phenoxymethyl-cyclopentyl)-heptanoic acid methyl ester] | > 10 | > 10 | > 10 | > 10 | – | – | – | – | –
4 | COC(=O)CCC/C=C\C[C@@H]1[C@@H](COc2ccccc2)[C@H](O)C[C@H]1Cl [Example 7, (Z)-7-((1R,2S,3R,5R)-5-Chloro-3-hydroxy-2-phenoxymethyl-cyclopentyl)-hept-5-enoic acid methyl ester] | > 10 | > 10 | > 10 | > 10 | – | – | – | – | –
5 | COC(=O)CCCCCC[C@@H]1[C@@H](COc2ccccc2)[C@H](O)C[C@H]1Cl [Example 9, 7-((1R,2S,3R,5R)-5-Chloro-3-hydroxy-2-phenoxymethyl-cyclopentyl)-heptanoic acid methyl ester] | 3.71 | – | > 10 | > 10 | – | – | – | – | –
6 | COC(=O)CCCCCC[C@@H]1[C@@H](COc2cc(Cl)cc(Cl)c2)[C@H](O)C[C@H]1Cl [Example 13, 7-[(1R,2S,3R,5R)-5-Chloro-2-(3,5-dichloro-phenoxymethyl)-3-hydroxy-cyclopentyl]-heptanoic acid methyl ester] | > 10 | > 10 | 1.66 | – | – | – | – | – | EC50 ([3]; Table 1, first part, data represents a single experiment, read-out: functional data (EC50) hEP3A*): > 10 µM; EC50 [3, 13]: > 10 µM; EC50 ([4]; Table 1, first part, triplicate, read-out: functional data (EC50) hDP): > 10 µM; EC50 ([4]; Table 1, second part, quantity not given, values match functional data (EC50) of first part, read-out: Other Receptors hDP): > 10 µM; EC50 ([5]; Table 1, first part, triplicate, read-out: functional data (EC50) hEP1): > 10 µM; EC50 ([5]; Table 1, second part, quantity not given, values match functional data (EC50) of first part, read-out: Other Receptors hEP1): > 10 µM
7 | O=C(O)CCC/C=C\C[C@@H]1[C@@H](COc2cc(C(F)(F)F)cc(C(F)(F)F)c2)[C@H](O)C[C@H]1Cl [Example 15, (Z)-7-[(1R,2S,3R,5R)-2-(3,5-Bis-trifluoromethyl-phenoxymethyl)-5-chloro-3-hydroxy-cyclopentyl]-hept-5-enoic acid] | – | – | – | – | 35 | 30 | 0.9 | 52 | –
8 | O=C(O)CCC/C=C\C[C@@H]1[C@@H](COc2cccc3ccccc23)[C@H](O)C[C@H]1Cl [Example 19, (Z)-7-[(1R,2S,3R,5R)-5-Chloro-3-hydroxy-2-(naphthalen-1-yloxymethyl)-cyclopentyl]-hept-5-enoic acid] | – | – | – | – | 41 | 31 | 0.8 | 54 | –
9 | O=C(O)CCC/C=C\C[C@@H]1[C@@H](COc2cccc(C(F)(F)F)c2)[C@H](O)C[C@H]1Cl [Example 24, (Z)-7-[(1R,2S,3R,5R)-5-Chloro-3-hydroxy-2-(3-trifluoromethyl-phenoxymethyl)-cyclopentyl]-hept-5-enoic acid] | – | – | – | – | 16 | 28 | 0.5 | 6 | –
10 | Cc1cc(C)cc(OC[C@@H]2[C@@H](C/C=C\CCCC(=O)O)[C@H](Cl)C[C@H]2O)c1 [Example 36, (Z)-7-[(1R,2S,3R,5R)-5-Chloro-2-(3,5-dimethyl-phenoxymethyl)-3-hydroxy-cyclopentyl]-hept-5-enoic acid] | – | – | – | – | 46 | 25 | 1.2 | 28 | –
11 | O=C(O)CCC/C=C\C[C@@H]1[C@@H](COc2cc(C(F)(F)F)cc(Cl)c2F)[C@H](O)C[C@H]1Cl [Example 41, (Z)-7-[(1R,2S,3R,5R)-5-Chloro-2-(3-chloro-2-fluoro-5-trifluoromethyl-phenoxymethyl)-3-hydroxy-cyclopentyl]-hept-5-enoic acid] | – | – | – | – | – | – | – | – | EC50 [3, 13]: 1.64 µM
